Data on two molecules can be found in patent US11401278B2, “Macrocyclic indole derivatives” (The Broad Institute, Inc., priority 2017, dated 2022).

Counter-ions that a name gives are not always drawn. Like-named read-outs stand apart in the source and are kept apart here.

What is called IC50 is the concentration that inhibits the measured activity by half. In general, EC50 refers to the concentration that produces a half-maximal response. A higher EC50 goes with a less potent agent.

The test system of data set [1] is SUDHL5. In words: Induction of cytotoxicity (Assay 6), SUDHL5. As to conditions: read-out: Cytotox SUDHL5 [M] (median) IC50, CellTiter-Glo, 5 hours, SUDHL5. (ATP-based viability assays read luminescence as a measure of living cells.)
For a further data set, the system named is PA-1. Nature of the data set: Antiproliferation assay (Assay 7), PA-1. It is filed as cell-based. As to conditions: CellTiter-Glo, 72 hours, median, read-out: Antiproli PA-1 [M] median IC50. The protocol: (§1) Assessment of the Anti-Proliferative Effect of Compounds in Different Cell Lines
(§2) The impact of compounds on the proliferation of different cell lines was assessed using the CellTiter-Glo® Luminescent Cell Viability reagent from Promega (G7573).
(§3) In parallel, cells were plated in a reference (day 0) plate for time zero determination.
(§4) Rim wells were excluded. The cells were incubated for 72 hours in a humidified incubator at 37° C. The day 0 plate was measured by adding 30 μL/well of CTG solution (CellTiter-Glo® Luminescent Cell Viability reagent, Promega G7573) to time zero wells in the reference plate followed by a 10 minutes incubation and luminescence reading at 0.1 ms. using the PHERAstar FS microplate reader (BMG Labtech).
(§5) After 72 hours incubation, the treated plates were measured in the same way as the day 0 plate mentioned above.

In the next data set the test system is HMC-1-8. In words: Antiproliferation assay (Assay 7), HMC-1-8. The conditions noted are these: CellTiter-Glo, 72 hours, several values per example, read-out: Antiproli HMC-1-8 [M] IC50. It is filed as cell-based. On the procedure: as §1, §2, §3, §4, §5
The target in data set [2] is SUDHL10. In words: Induction of caspase-3/7 activity (Assay 4), SUDHL10. It is filed as cell-based. The conditions noted are these: caspase-3/7 induction, 3 hours, median. The gist of the method:
(§6)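 Caspase-3/7 activity measured by Caspase-Glo 3/7 luminescence in DLBCL cells after 3 h compound treatment at 37 °C. Medium-only background subtracted. EC50 fitted with C0 fixed at 1 and top set to the reference compound's plateau/max induction.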

The next data set relates to DM-S114. Nature of the data set: Antiproliferation assay (Assay 7), DM-S114. It is filed as cell-based. The conditions noted are these: CellTiter-Glo, 72 hours, median, read-out: Antiproli DM-S114 [M] median IC50. On the procedure:
as §1, §2, §3, §4, §5

For a further data set, the system named is SNU-16. Nature of the data set: Antiproliferation assay (Assay 7), SNU-16. As to conditions: CellTiter-Glo, 72 hours, median, read-out: Antiproli SNU-16 [M] median IC50. It is filed as cell-based. The protocol:
as §1, §2, §3, §4, §5

The target in data set [3] is SUDHL5. In words: Induction of caspase-3/7 activity (Assay 4), SUDHL5. It is filed as cell-based. The conditions noted are these: caspase-3/7 induction, 3 hours, median. The gist of the method: as §6
Data set [4] concerns SUDHL5. Nature of the data set: Antiproliferation assay (Assay 7), SUDHL5. It is filed as cell-based. As to conditions: CellTiter-Glo, 72 hours, median, read-out: Antiproli SUDHL5 [M] (median) IC50. The gist of the method: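 Cells were treated with compound for 72 hours at 37° C in a humidified incubator, and viability was then read by CellTiter-Glo luminescence. A parallel reference plate was read at time zero (day 0) in the same way for baseline determination.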

Data set [5] concerns SUDHL10. Nature of the data set: Induction of cytotoxicity (Assay 6), SUDHL10. As to conditions: read-out: Cytotox SUDHL10 [M] (median) IC50, CellTiter-Glo, 5 hours, SUDHL10.
The next data set has as its system A-431. Nature of the data set: Antiproliferation assay (Assay 7), A-431. It is filed as cell-based. As to conditions: CellTiter-Glo, 72 hours, median, read-out: Antiproli A-431 [M] median IC50. The protocol: as §1, §2, §3, §4, §5
The test system of another data set is SK-MEL-2. In words: Antiproliferation assay (Assay 7), SK-MEL-2. It is filed as cell-based. As to conditions: CellTiter-Glo, 72 hours, median, read-out: Antiproli SK-MEL-2 [M] median IC50. The protocol:
as §1, §2, §3, §4, §5

The target in the next data set is MCL-1 (Homo sapiens (Human), UniProt Q07820, K194A/K197A/R201A). In words: Protein-protein interaction assay MCL-1/Noxa BH3 peptide (MCL-1 assay, TR-FRET). It is filed as binding. As to conditions: MBP-MCL-1 / Noxa BH3 peptide, median. The gist of the method: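 MBP-fused MCL-1 (aa 173-329, 1 nM) was pre-incubated with compound for 10 min at 22° C, then biotinylated Noxa BH3 peptide (1 nM) was added with anti-MBP-Eu cryptate and streptavidin-XL665. Incubation was 1 h at 22° C, then overnight at 4° C, in Tris pH 7 buffer. The 665/620 nm ratio over 11 concentrations (0.1 nM-20 μM) gave IC50 by 4-parameter fit.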
Sequence of MCL-1 (Q07820 whole entry K194A/K197A/R201A, looked up, the tested form may be a part): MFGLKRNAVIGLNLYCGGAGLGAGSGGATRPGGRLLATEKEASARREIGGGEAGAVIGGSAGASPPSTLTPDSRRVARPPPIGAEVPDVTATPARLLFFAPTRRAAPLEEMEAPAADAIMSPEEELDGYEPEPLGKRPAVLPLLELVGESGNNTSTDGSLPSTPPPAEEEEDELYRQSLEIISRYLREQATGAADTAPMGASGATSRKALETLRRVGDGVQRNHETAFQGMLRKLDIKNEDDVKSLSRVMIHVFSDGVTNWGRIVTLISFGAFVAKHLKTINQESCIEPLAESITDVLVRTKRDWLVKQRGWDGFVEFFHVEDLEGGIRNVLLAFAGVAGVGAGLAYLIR

Data set [6] has as its system SUDHL10.
Data set [7] relates to SUDHL5.
The next data set deals with AMO-1. Nature of the data set: Antiproliferation assay (Assay 7), AMO-1. It is filed as cell-based. The conditions noted are these: CellTiter-Glo, 72 hours, several values per example, read-out: Antiproli AMO-1 [M] IC50. On the procedure:
as §1, §2, §3, §4, §5

Turning to `CCc1c2c(nn1C)C(CCN1CCOCC1)N(C)S(=O)(=O)CCCn1c(C(=O)O)c(CCCOc3cccc4cc(F)ccc34)c3ccc(Cl)c-2c31` (single isomer, unassigned; enantiomer 1) [Example 75, 4-chloro-3-ethyl-7-{3-[(6-fluoronaphthalen-1-yl)oxy]propyl}-2,14-dimethyl-15-[2-(morpholin-4-yl)ethyl]-13,13-dioxo-10,11,12,13,14,15-hexahydro-2H-13lambda^6-pyrazolo[3′,4′:4,5][1,2,8]thiadiazacycloundecino[6,7,8-hi]indole-8-carboxylic acid-N-ethylethanamine Salt (Enantiomer 1)], the 50% inhibitory concentration (IC50) is 1.6e-05 M with SUDHL5 [1]; 3.2e-08 M in the data set with PA-1; > 3.3e-05 M in the data set on HMC-1-8; 3.66e-08 M in the data set on DM-S114; 1.26e-07 M in the data set with SNU-16; 1.4e-05 M in the data set with SUDHL5 [4]. The 50% inhibitory concentration (IC50) was 1.6e-05 M in the data set on SUDHL10 [5], 3.24e-07 M in the data set with A-431, 4.64e-07 M in the data set with SK-MEL-2 and 0.15 µM against MCL-1. Besides, the EC50 came out at 35 µM on SUDHL10 [2] and 11 µM on SUDHL5 [3].
`CCc1c2c(nn1C)C(CCN1CCOCC1)N(C)S(=O)(=O)CCCn1c(C(=O)O)c(CCCOc3cccc4cc(F)ccc34)c3ccc(Cl)c-2c31` (racemic) [Example 74, (rac) 4-chloro-3-ethyl-7-{3-[(6-fluoronaphthalen-1-yl)oxy]propyl}-2,14-dimethyl-15-[2-(morpholin-4-yl)ethyl]-13,13-dioxo-10,11,12,13,14,15-hexahydro-2H-13lambda6-pyrazolo[3′,4′:4,5][1,2,8]thiadiazacycloundecino[6,7,8-hi]indole-8-carboxylic acid (Racemate 2)]: the IC50 in the data set on SUDHL10 [6] was 0.017 µM; in the data set with SUDHL5 [7], 0.013 µM; in the data set on HMC-1-8 it was 3.2e-07 M; in the data set on AMO-1 it was 3.9e-08 M; in the data set on SUDHL5 [4] it was 9.9e-09 M; against MCL-1, 0.0011 µM. The EC50 was determined as 0.014 µM on SUDHL10 [2] and 0.011 µM on SUDHL5 [3].
